Experimental data from US9255072B2, “Pyrazole compounds and thiazole compounds as protein kinases inhibitors” (National Health Rsearch Institutes, priority 2011, dated 2016).
Read-outs that look alike come from different tables or passages of the source.

Target: T1, wt-FLT3 (Homo sapiens, UniProt P36888)
T1 construct: FLT3 kinase catalytic domain (residues Y567˜S993); made in house; host or cells: Sf9 insect cells (baculovirus, pBac-PAK8-GST-FLT3-KD plasmid)
T1 sequence (P36888 567-993): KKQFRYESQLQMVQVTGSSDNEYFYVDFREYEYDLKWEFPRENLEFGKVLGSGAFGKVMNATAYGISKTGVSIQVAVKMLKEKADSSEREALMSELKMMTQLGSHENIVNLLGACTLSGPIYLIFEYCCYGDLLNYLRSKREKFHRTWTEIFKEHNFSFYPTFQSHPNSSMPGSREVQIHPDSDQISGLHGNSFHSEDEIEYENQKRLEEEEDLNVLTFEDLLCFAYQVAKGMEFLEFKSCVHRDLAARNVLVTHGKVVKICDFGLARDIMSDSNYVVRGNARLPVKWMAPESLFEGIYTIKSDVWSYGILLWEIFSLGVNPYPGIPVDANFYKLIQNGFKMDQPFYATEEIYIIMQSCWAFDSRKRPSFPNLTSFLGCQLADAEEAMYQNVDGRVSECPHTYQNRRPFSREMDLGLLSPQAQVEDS
Assay: FLT3 WT Kinase-Glo assay
Type: biochemical
In short: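 GST-tagged wild-type FLT3 kinase domain (residues Y567–S993), expressed in Sf9 cells, was used. After the kinase reaction, remaining ATP was detected by Kinase-Glo Plus luminescence following 20 min at 25 °C.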

[1] = FLT3 WT Kinase-Glo, 1 μM ATP, read-out: IC50
[2] = table of representative values, read-out: IC50 (nM) wt-FLT3

SMILES | IC50 [1] [nM] | IC50 [2] [nM]
CCc1cc(NC(=O)Nc2ccc(-c3cnc(Nc4cc(N5CCN(CC)CC5)nc(C)n4)s3)cc2)no1 [Compound 112, N-(5-ethyl-3-isoxazolyl)-N′-[4-(2-[6-(4-ethylpiperazino)-2-methyl-4-pyrimidinyl]amino-1,3-thiazol-5-yl)phenyl]urea] | 1 to 20 | 15
CCc1cc(NC(=O)Nc2ccc(-c3cnc(Nc4cc(N5CCC(N)C5)nc(C)n4)s3)cc2)no1 (stereo not shown) [Compound 119, N-[4-(2-[6-(3-aminotetrahydro-1H-1-pyrrolyl)-2-methyl-4-pyrimidinyl]amino-1,3-thiazol-5-yl)phenyl]N′-(5-ethyl-3-isoxazolyl)urea] | 1 to 20 | 14
